Assay results reported in ChEMBL document CHEMBL3217704, “Combination of biotransformation by P450 BM3 mutants with on-line post-column bioaffinity and mass spectrometric profiling as a novel strategy to diversify and characterize p38 kinase inhibitors” (Medchemcomm, 2013).

Biological target: Mitogen-activated protein kinase 14 (Homo sapiens, UniProt Q16539)
Test: Displacement of SKF86002 from recombinant human p38alpha by fluorescence-based assay; call rule not given here

Chain of Mitogen-activated protein kinase 14 (Q16539 whole entry): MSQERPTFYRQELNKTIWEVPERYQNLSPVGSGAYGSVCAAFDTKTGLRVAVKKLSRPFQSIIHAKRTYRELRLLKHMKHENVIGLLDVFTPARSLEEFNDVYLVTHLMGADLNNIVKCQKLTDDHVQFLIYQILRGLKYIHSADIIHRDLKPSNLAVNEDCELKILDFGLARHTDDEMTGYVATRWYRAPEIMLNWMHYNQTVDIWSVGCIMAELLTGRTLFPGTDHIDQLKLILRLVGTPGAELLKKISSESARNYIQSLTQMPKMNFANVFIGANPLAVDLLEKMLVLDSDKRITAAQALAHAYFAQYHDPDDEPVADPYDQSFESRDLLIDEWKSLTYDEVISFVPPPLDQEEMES

SMILES	IC50 (read-out: IC50) [µM]	IC50
CC(O)c1nc(-c2cccc(CO)c2)c(-c2ccnc(NC(=O)c3ccccc3)c2)s1 (stereo not given)	0.46	
Cc1cccc(-c2nc(C(C)O)sc2-c2ccnc(NC(=O)c3ccccc3)c2)c1 (stereo not given)	0.038	
CC(O)c1nc(-c2cccc(C(=O)O)c2)c(-c2ccnc(NC(=O)c3ccccc3)c2)s1 (stereo not given)		Not Active

The next lines start with results.

IC50 (read-out: IC50) [µM]	SMILES	IC50
0.31	CCc1nc(-c2cccc(CO)c2)c(-c2ccnc(NC(=O)c3ccccc3)c2)s1	
1.5	CCc1nc(-c2cccc(C(=O)O)c2)c(-c2ccnc(NC(=O)c3ccccc3)c2)s1	
